# Results as given in the supplement of paper PMC10307832.
# Experiments:
# Assay in all cases: relative viability (nuclei count vs DMSO), 5 days (fraction); higher = more cells survive
# [1] = compound: O=C(CCCCCCNC(=O)c1cnc(N(c2ccccc2)c2ccccc2)nc1)NO [Ricolinostat] + N=C(N)NC(=N)NCCc1ccccc1 [Phenformin] (partner 250 µM)
# How it was run: (§1)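 Each reported value is a median over duplicate plates. It expresses relative viability: treated-well nuclei count divided by vehicle-well nuclei count. Lung cancer cell lines in 1536-well plates were dosed by pin tool a day after seeding, alone with one drug or with a fixed anchor-drug dose plus five library-drug doses (not always all listed) in √10 steps, and nuclei were counted after 5 days.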
# [2] = compound: C1=CC=C(C(=C1)C2=CC=C(C=C2)C3=CSC4=C3C(=C(C(=O)N4)C#N)O)O + O=C(c1cc(Cc2n[nH]c(=O)c3ccccc23)ccc1F)N1CCN(C(=O)C2CC2)CC1 [Olaparib] (partner 8 µM)
# How it was run: as §1
# [3] = compound: C1=CC=C(C(=C1)C2=CC=C(C=C2)C3=CSC4=C3C(=C(C(=O)N4)C#N)O)O + CCNC(=O)c1noc(-c2cc(C(C)C)c(O)cc2O)c1-c1ccc(CN2CCOCC2)cc1 [Luminespib] (partner 0.01 µM)
# How it was run: as §1
# [4] = compound: C1=CC=C(C(=C1)C2=CC=C(C=C2)C3=CSC4=C3C(=C(C(=O)N4)C#N)O)O + NC(=O)Nc1cc(-c2cccc(F)c2)sc1C(=O)N[C@H]1CCCNC1 [AZD7762] (partner 0.2 µM)
# How it was run: as §1
cell line,measurement,setting,value
NCI-H1792,relative viability,[1]; first compound 0.08 µM,0.29
same,relative viability,[1]; first compound 0.253 µM,0.233
same,relative viability,[1]; first compound 0.8 µM,0.178
same,relative viability,[1]; first compound 2.53 µM,0.245
same,relative viability,[2]; first compound 0.253 µM,0.324
same,relative viability,[2]; first compound 0.8 µM,0.365
same,relative viability,[2]; first compound 2.53 µM,0.317
same,relative viability,[2]; first compound 8 µM,0.389
same,relative viability,[3]; first compound 0.253 µM,0.576
same,relative viability,[3]; first compound 0.8 µM,0.641
same,relative viability,[3]; first compound 2.53 µM,0.473
same,relative viability,[3]; first compound 8 µM,0.288
same,relative viability,[4]; first compound 0.253 µM,0.953
same,relative viability,[4]; first compound 0.8 µM,0.329
same,relative viability,[4]; first compound 2.53 µM,0.551
same,relative viability,[4]; first compound 8 µM,0.532
